Experimental data as given in EP3222712A1, “ALCOHOL DEHYDROGENASE FROM PICHIA PASTORIS AND USE THEREOF” (priority 2016, dated 2017).

Assays:
[1] = system: alcohol dehydrogenase from Pichia pastoris (PPADH); test: biotransformation by purified PPADH with GDH co-factor regeneration, gas chromatography; format: biochemical; conditions: 2 hours reaction time
[2] = target: T1, alcohol dehydrogenase from Pichia pastoris (PPADH) (Komagataella phaffii, UniProt C4R4L0); test: photometric assay, reduction of aldehydes and ketones by purified PPADH (NADPH, 340 nm); format: biochemical, Pichia pastoris GS 115; conditions: for relative activity: 38.6 U/mg with benzaldehyde set to 100%; for specific activity: purified PPADH, 10 mM substrate (sample 4: 20 mM), 0.2 mM NADPH, tris HCl pH 7, 25°C
T1 sequence (C4R4L0 entry or part of it): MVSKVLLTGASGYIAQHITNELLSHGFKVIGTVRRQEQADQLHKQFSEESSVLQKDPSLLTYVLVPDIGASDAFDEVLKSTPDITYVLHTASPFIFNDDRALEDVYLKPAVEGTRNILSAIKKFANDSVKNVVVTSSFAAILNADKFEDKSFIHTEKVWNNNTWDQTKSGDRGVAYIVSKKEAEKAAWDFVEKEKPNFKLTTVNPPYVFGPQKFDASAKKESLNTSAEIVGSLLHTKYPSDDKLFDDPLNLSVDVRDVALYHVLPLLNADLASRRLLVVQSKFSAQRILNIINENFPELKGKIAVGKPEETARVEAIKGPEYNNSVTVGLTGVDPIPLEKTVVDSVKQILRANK
Method: (§1) In a first step, crude extract containing recombinant alcohol dehydrogenase from Pichia pastoris via cell disruption of E. coli BL21(DE3) overexpressing in vector pET28a-PPADH carrying an N-terminal 6xHis tag. Cells were resuspended in 10 mM tris HCl buffer (pH 7) to yield a 25% cell suspension and were disrupted by sonification under cooling. Three cycles of 2 min of 25% power output followed by 1 min cooling were used. After repeated centrifugation a cell-free crude extract was obtained. Afterwards the PPADH was purified as described in example 3c).
(§2) Determination of the enzymatic activity of the purified PPADH can be determined via a oxidation or reduction reaction. For determination of the reduction the following compounds were used: tris HCl buffer (100 mM, pH 7), 0.2 mM NADPH, 10 mM substrate selected from the aldehydes and ketones as given in Table 2 and 10 µl enzyme (purified PPADH). For determination of the oxidation the following compounds were used: tris HCl buffer (100 mM, pH 9), 0.2 mM NADP^+, 10 mM substrate selected from the alcohols as given in Table 3 and 10 µl enzyme (purified PPADH). The reaction was performed in 1 cm-cuvettes. The compounds were mixed in the cuvette used for the experiment, which was placed in the photometer and data recording was started. The enzyme solution was added only immediately before the start of the measurement. The activity of the enzyme was determined by photometric detection of the concentration of NADPH after a certain time interval. Measurement was carried out at a temperature of 25°C, a wavelength of 340 nm and over a time interval of 1 min. Table 2: enzymatic activity of PPADH regarding the reduction of different substrates determined by photometry

[3] = target: T1, alcohol dehydrogenase from Pichia pastoris (PPADH); test: photometric assay, oxidation of alcohols by purified PPADH (NADP+, 340 nm); format: biochemical, Pichia pastoris GS 115; conditions: for specific activity: purified PPADH, 10 mM substrate, 0.2 mM NADP+, tris HCl pH 9, 25°C; for relative activity: 6.6 U/mg set to 100%
Method: as §1
as §2, with “min.” for “min. Table 2: enzymatic activity of PPADH regarding the reduction of different substrates determined by photometry”

[4] = CF3-ketone derivatives, alcohol formed related to the reduction of (S)-ketone
[5] = acetophenone derivatives, related to the alcohol formed

Structure (SMILES) | specific activity [2] [U/mg] | specific activity [3] [U/mg] | further results
COC(C)(CC(C)=O)c1ccccc1 (racemic) [NOD-VI-405] |  |  | level of turnover ([1]; CF3-ketone derivatives): +++ (+++ =20-55 %); turnover [1, 4]: 20.3%
CC(=O)CC(O)(c1ccc(Cl)cc1)C(F)(F)F (racemic) [Nod362] |  |  | level of turnover ([1]; CF3-ketone derivatives): +++++ (+++++ = 75 - 100 %); turnover ([1]; CF3-ketone derivatives): quant.
CC(=O)CC(O)(c1ccccc1)C(F)(F)F (racemic) [compound 4] | 37.5 |  | relative activity [2]: 97.2%
CCC(O)CO (stereo not drawn) [1,2-butanediol] |  | < 0.5 | 
CC(O)CO (stereo not drawn) [1,2-propanediol] |  | < 0.5 | 
CC(O)c1ccc(Cl)cc1 (stereo not drawn) [1-(4-chlorophenyl)ethanol] |  | < 0.5 | 
C=CC(O)CC (stereo not drawn) [1-penten-3-ol] |  | < 0.5 | 
O=C(c1ccccc1Br)C(F)(F)F [2'-Bromo-2,2,2-trifluoroacetophenone] |  |  | level of turnover ([1]; acetophenone derivatives): + (+=1-5%); turnover [1, 5]: <5%
COc1ccccc1C(C)=O [2'-Methoxyacetophenone] |  |  | level of turnover ([1]; acetophenone derivatives): + (+=1-5%); turnover [1, 5]: <5%
CC(=O)c1ccccc1Br [2'-bromoacetophenone] |  |  | level of turnover ([1]; acetophenone derivatives): + (+=1-5%); turnover [1, 5]: <5%
O=C(c1ccccc1)C(F)(F)F [2,2,2-Trifluoroacetophenone] |  |  | level of turnover ([1]; acetophenone derivatives): +++ (+++=20-55%); turnover [1, 5]: 24.2%
CC(O)C(C)O (stereo not drawn) [2,3-butanediol] |  | < 0.5 | 
O=C(CO)c1ccccc1 [2-Hydroxyacetophenone] |  |  | level of turnover ([1]; acetophenone derivatives): + (+=1-5%); turnover [1, 5]: <5%
COCC(=O)c1ccccc1 [2-Methoxyacetophenone] |  |  | level of turnover ([1]; acetophenone derivatives): - (-=0-1%); turnover [1, 5]: <1%
OC1C=CCCC1 (stereo not drawn) [2-cyclohexen-1-ol] |  | < 0.5 | 
CCCCC(C)=O [2-hexanone] | < 0.5 |  | 
CCCCCCCC(C)=O [2-nonanone] | < 0.5 |  | 
CCCCCCC(C)=O [2-octanone] | < 0.5 |  | 
CC(CO)c1ccccc1 (stereo not drawn) [2-phenyl-1-propanol] |  | < 0.5 | 
CC1CC(=O)CC(C)(C)C1 (stereo not drawn) [3,3,5-trimethylcyclohexanone] | < 0.5 |  | 
O=C(c1ccc(Cl)cc1)C(F)(F)F [4'-Chloro-2,2,2-trifluoro acetophenone] |  |  | level of turnover ([1]; acetophenone derivatives): ++ (++=5-20%); turnover [1, 5]: 12.4%
CCC(=O)C(O)CC (stereo not drawn) [4-hydoxy-3-hexanone] | < 0.5 |  | 
COC(C)(C)CC(C)=O [4-methoxy-4-metyhl-2-pentanone] | < 0.5 |  | 
CC(=O)CC(C)C [4-methyl-2-pentanone] | < 0.5 |  | 
CC(C)=C1CC[C@@H](C)CC1=O [(+)-pulegon] | < 0.5 |  | 

Structure (SMILES) | specific activity [2] [U/mg] | specific activity [3] [U/mg] | further results
C=C(C)[C@@H]1CC=C(C)C(=O)C1 [(-)-carvone] | < 0.5 |  | 
CC(C)[C@@H]1CC[C@@H](C)CC1=O [(-)-menthone] | < 0.5 |  | 
C[C@@H](O)c1ccccc1 [(R)-(+)-1-phenylethanol] |  | < 0.5 | 
CCCCCC[C@@H](C)O [(R)-(-)-2-octanol] |  | < 0.5 | 
C=CCC[C@@H](C)O [(R)-(-)-5-hexen-2-ol] |  | < 0.5 | 
CC[C@H](N)CO [(S)-(+)-2-amino-1-butanol] |  | < 0.5 | 
CC[C@H](C)O [(S)-(+)-2-butanol] |  | < 0.5 | 
CC(=O)CC(O)(c1ccc(F)cc1)C(F)(F)F (stereo not drawn) [Nod363 F4] |  |  | level of turnover ([1]; CF3-ketone derivatives): +++++ (+++++ = 75 - 100 %); turnover ([1]; CF3-ketone derivatives): quant.
CC(=O)CC(O)(c1ccc(C)cc1)C(F)(F)F (stereo not drawn) [Nod364 F3-Enon] |  |  | level of turnover ([1]; CF3-ketone derivatives): +++++ (+++++ = 75 - 100 %); turnover ([1]; CF3-ketone derivatives): quant.
COc1ccc(C(O)(CC(C)=O)C(F)(F)F)cc1 (stereo not drawn) [Nod365 F6] |  |  | level of turnover ([1]; CF3-ketone derivatives): +++++ (+++++ = 75 - 100 %); turnover ([1]; CF3-ketone derivatives): quant.
COc1ccccc1[C@@](O)(CC(C)=O)C(F)(F)F [Nod-3d] |  |  | level of turnover ([1]; CF3-ketone derivatives): +++++ (+++++ = 75 - 100 %); turnover [1, 4]: 75.8%
CC(C)=O [acetone] | < 0.5 |  | 
CC(=O)c1ccccc1 [acetophenone] |  |  | level of turnover ([1]; acetophenone derivatives): ++ (++=5-20%); turnover [1, 5]: 7.8%
CC(=O)CCc1ccccc1 [benzylacetone] | < 0.5 |  | 
OCc1ccccc1 [benzylalcohol] |  | < 0.5 | 
O=Cc1ccccc1 [compound 1, benzaldehyde] | 38.6 |  | relative activity [2]: 100.0%
CC(=O)c1ccccc1 [compound 2] | 0.06 |  | relative activity [2]: 0.2%
O=C(c1ccccc1)C(F)(F)F [compound 3] | 0.10 |  | relative activity [2]: 0.3%
CCCC=O [compound 5] | 68.0 |  | relative activity [2]: 176.2%
CCCC(C)C=O (stereo not drawn) [compound 6] | 96.1 |  | relative activity [2]: 248.9%
CCCCCC=O [compound 7] | 28.5 |  | relative activity [2]: 73.9%
CCC/C=C/C=O [compound 8] | 37.5 |  | relative activity [2]: 97.2%
CC(C)=CCC/C(C)=C/C=O [compound 9] | 17.8 |  | relative activity [2]: 46.1%
CC(C)=CCCC(C)CC=O (stereo not drawn) [compound 10] | 27.8 |  | relative activity [2]: 71.9%
CCOC(=O)C(Cl)C(C)=O (stereo not drawn) [compound 11] | 5.7 |  | relative activity [2]: 14.7%

Structure (SMILES) | specific activity [2] [U/mg] | specific activity [3] [U/mg] | further results
CCOC(=O)CC(=O)CCl [compound 12] | 38.0 |  | relative activity [2]: 98.3%
CCCC(=O)CC(=O)OCC [compound 13] | 0.5 |  | relative activity [2]: 1.3%
CC(=O)CC(C)=O [compound 14] | 3.3 |  | relative activity [2]: 8.5%
C[C@@H](CO)c1ccccc1 [compound 15] |  | 1.06 | relative activity [3]: 16.0%
OCCc1ccccc1Br [compound 16] |  | 1.94 | relative activity [3]: 29.3%
CCCCO [compound 17] |  | 1.11 | relative activity [3]: 16.7%
CCCC(C)CO (stereo not drawn) [compound 18] |  | 2.04 | relative activity [3]: 30.9%
CCCC(C)O (stereo not drawn) [compound 19] |  | 2.53 | relative activity [3]: 38.3%
C/C=C/C(C)O (stereo not drawn) [compound 20] |  | 1.29 | relative activity [3]: 19.5%
CCCCC(C)O (stereo not drawn) [compound 22] |  | 3.62 | relative activity [3]: 54.9%
CCCC[C@H](C)O [compound 23] |  | 6.61 | relative activity [3]: 100.0%
C=CCC[C@H](C)O [compound 24] |  | 3.79 | relative activity [3]: 57.4%
CCCCC[C@H](C)O [compound 25] |  | 2.09 | relative activity [3]: 31.6%
CCCCCCC(C)O (stereo not drawn) [compound 26] |  | 0.57 | relative activity [3]: 8.7%
CC(C)=CCCC(C)=CCO [compound 27] |  | 2.16 | relative activity [3]: 32.7%
CC(C)=CCCC(C)=CCO [compound 28] |  | 1.19 | relative activity [3]: 18.0%
OC1CCCCC1 [cyclohexanol] |  | < 0.5 | 
O=C1C=CCCC1 [cyclohexen-1-on] | < 0.5 |  | 
CC1(C)COC(=O)C1=O [dihydro-4,4-dimethyl-2,3-furandion] | < 0.5 |  | 
CCOC(C)=O [ethylacetate] | < 0.5 |  | 
CC12CCC(C1)C(C)(C)C2=O (stereo not drawn) [fenchon] | < 0.5 |  | 
C=CC(O)CCCCC (stereo not drawn) [octen-3-ol] |  | < 0.5 | 
CCC(=O)c1ccccc1 [propiophenone] | < 0.5 |  | 
